The NIST ThermoML archive (doi:10.1016/j.jct.2018.06.021)

Experiments:
[1] = 101.33 kPa, Liquid; for viscosity: Falling or rolling sphere viscometry; for mass density: Vibrating tube method
[2] = wn = mass fraction of the nth substance listed; conditions: 101.3 kPa, Liquid, Vibrating tube method

OCCO [1,2-ethanediol]
[1]
Conditions	mass density [kg/m3]	viscosity [mPa·s]
303.15 K	1106.3	13.66
308.15 K	–	11.32
313.15 K	1099.2	9.474
318.15 K	–	8.016
323.15 K	1092.1	6.849
328.15 K	1088.4	5.903
333.15 K	1084.8	5.124
338.15 K	1081.2	4.482
343.15 K	1077.5	3.946
348.15 K	1073.7	3.496
353.15 K	1070	3.112

OCCO [1,2-ethanediol] + O
mass density [kg/m3], [2]
Conditions	293.25 K	293.45 K	303.15 K	303.45 K	313.15 K	323.25 K	333.25 K	333.35 K
w1 = 0.95	–	1109.3	–	1102.4	–	1088.3	–	1081
w1 = 1	1113.6	–	1106.5	–	1099.2	1091.9	1084.6	–

O [water] + OCCO
[2], w2 = 0
Conditions	mass density [kg/m3]
323.25 K	988
333.35 K	983.1
